The text below walks through data of patent publication US20180217163A1, “TREATMENT OF NEURODEGENERATIVE CONDITIONS USING PKC ACTIVATORS AFTER DETERMINING THE PRESENCE OF THE APOE4 ALLELE” (priority 2015, published 2018).

The target in series [1] is T1, PKCε (Homo sapiens, UniProt Q02156).
T1 construct: from tissue; host or cells: blood of trial subjects
T1 sequence (Q02156 1-737): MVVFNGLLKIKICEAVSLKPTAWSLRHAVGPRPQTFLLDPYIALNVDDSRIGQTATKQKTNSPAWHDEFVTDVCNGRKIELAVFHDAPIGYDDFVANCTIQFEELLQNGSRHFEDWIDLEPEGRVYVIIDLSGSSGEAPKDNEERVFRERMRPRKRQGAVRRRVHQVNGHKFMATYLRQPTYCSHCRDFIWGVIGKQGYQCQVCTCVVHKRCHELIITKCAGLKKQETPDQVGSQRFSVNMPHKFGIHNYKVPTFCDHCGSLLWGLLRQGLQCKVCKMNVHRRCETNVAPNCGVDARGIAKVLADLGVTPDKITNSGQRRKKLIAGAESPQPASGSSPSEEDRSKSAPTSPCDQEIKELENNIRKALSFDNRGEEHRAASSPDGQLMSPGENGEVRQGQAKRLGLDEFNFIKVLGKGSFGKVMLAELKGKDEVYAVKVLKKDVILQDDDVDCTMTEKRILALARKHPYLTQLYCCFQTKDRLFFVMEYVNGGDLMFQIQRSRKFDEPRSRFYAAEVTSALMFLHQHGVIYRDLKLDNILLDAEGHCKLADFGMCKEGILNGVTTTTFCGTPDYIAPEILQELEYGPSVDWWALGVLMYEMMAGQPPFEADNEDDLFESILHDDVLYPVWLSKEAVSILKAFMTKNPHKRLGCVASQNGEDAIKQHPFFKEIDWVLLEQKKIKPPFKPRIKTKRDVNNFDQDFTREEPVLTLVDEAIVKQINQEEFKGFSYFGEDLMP
The experiment in a line: Phase IIa clinical trial: PKCε levels after bryostatin. In kind it is in vivo.

Series [2] addresses T2, PKCε (Mus musculus, UniProt P16054).
T2 construct: from tissue; host or cells: mouse brain
T2 sequence (P16054 1-737): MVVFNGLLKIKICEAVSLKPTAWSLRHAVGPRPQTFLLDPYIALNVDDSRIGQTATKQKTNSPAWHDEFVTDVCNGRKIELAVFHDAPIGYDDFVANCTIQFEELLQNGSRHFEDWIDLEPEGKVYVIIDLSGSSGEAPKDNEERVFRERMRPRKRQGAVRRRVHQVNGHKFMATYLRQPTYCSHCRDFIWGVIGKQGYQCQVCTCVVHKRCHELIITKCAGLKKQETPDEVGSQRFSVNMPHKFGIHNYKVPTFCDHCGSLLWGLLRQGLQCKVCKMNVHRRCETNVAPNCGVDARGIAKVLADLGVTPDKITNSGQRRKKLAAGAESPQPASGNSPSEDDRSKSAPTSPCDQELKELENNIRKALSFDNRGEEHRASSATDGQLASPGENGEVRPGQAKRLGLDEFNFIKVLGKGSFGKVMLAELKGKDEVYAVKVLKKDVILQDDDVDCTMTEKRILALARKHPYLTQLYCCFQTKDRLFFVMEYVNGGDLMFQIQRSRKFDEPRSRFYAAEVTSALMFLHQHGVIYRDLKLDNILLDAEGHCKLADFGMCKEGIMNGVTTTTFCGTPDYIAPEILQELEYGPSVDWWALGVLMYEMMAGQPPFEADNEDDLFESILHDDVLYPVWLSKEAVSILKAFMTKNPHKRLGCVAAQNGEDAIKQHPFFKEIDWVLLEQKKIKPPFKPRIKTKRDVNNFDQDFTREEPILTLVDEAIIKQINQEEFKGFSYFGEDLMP
Kind of series: PKCε activation in brain of mice (FIG. 11). The series is classed as in vivo. The following applies: single intravenous injection.

The conditions of series [3]: cited from earlier work.
Series [4] deals with HDAC6-BDNF PIII association. Kind of series: ChIP: HDAC6 association with BDNF promoter III. In kind it is cell-based, human. As for the experimental part: (§1) Human SH-SY5Y neuroblastoma cells (Sigma-Aldrich), were cultured in 45% F12K, 45% MEM, and 10% FBS. Cells were treated with cholesterol, ASPD, ApoE3/ApoE4+cholesterol, or PKC activators for 24 h. Cholesterol was dissolved in ethanol. ApoE (20 nM) and cholesterol (100 μM) were mixed separately into the cultures. To block the ApoE receptors, cells were treated with RAP for 30 min before adding ApoE. Human primary neurons (ScienCell Research Laboratories) were plated on poly-L-lysine-coated plates and were maintained in neuronal medium (ScienCell Research Laboratories) supplemented with the neuronal growth supplements (ScienCell Research Laboratories). Half of the culture medium was changed every 3 d and fresh activators were added with every medium change to maintain viable neurons.
(§2) BDNF promoter- and exon specific primers were used as described previously (Pruunsild et al., Dissecting the human BDNF locus: bidirectional transcription, complex splicing, and multiple promoters, Genomics, 90:397-406, 2007). […]
(§3) ChIP was conducted using the SimpleChlP Enzymatic Chromatin IP kit (Cell Signaling Technology) following the manufacturer's protocol. […] The cumulative fluorescence for each amplicon was normalized to input DNA. […]

The subject of series [5] is BDNF-exon IV. Kind of series: BDNF-exon IV expression in SH-SY5Y cells (qRT-PCR). In kind it is cell-based, human. As for the experimental part:
as §1
(§4) qRT-PCR was performed and the results analyzed as described previously (Schmittgen et al., Analyzing real-time PCR data by the comparative C(T) method, Nat. Protoc., 3:1101-1108, 2008; Sen et al., 2012 supra). Total RNA (500 ng) was reverse transcribed using oligo(dT) and Superscript III (Invitrogen) at 50° C. for 1 h. The cDNA products were analyzed using a LightCycler 480 II (Roche) PCR machine and LightCycler 480 SYBR Green 1 master mix following the manufacturer's protocol. Primers for PKCε (forward primer: […], reverse primer: […], PKCα (forward-[…], reverse: […]), PKC (forward: […], reverse: CCGATG […]), GAPDH (forward: […], reverse: […]), and BDNF (forward: […], reverse: […]; Origene).
BDNF promoter- and exon specific primers were used as described previously (Pruunsild et al., Dissecting the human BDNF locus: bidirectional transcription, complex splicing, and multiple promoters, Genomics, 90:397-406, 2007). BDNF-promotor I (PI) (forward: […], reverse: […]), BDNF-promotor II (PII) (forward: […], reverse: […]), BDNF-promotor III (PIII) (forward: […], reverse: […]), BDNF-promoter (IV) (PIV) (forward: […], reverse: […]), BDNF-promoter IX (PIX) (forward: […], reverse: […]) were from Invitrogen. […]
For orientation: Real-time PCR tracks product formation cycle by cycle.

The test system of series [6] is BDNF mRNA. Kind of series: BDNF mRNA expression in SH-SY5Y cells (qRT-PCR). The series is classed as cell-based, human. As for the experimental part: as §1, §4
Series [7] has as its system HDAC6. Kind of series: HDAC6 nuclear translocation in SH-SY5Y cells (immunoblot). The series is classed as cell-based, human. Particulars: ApoE4+ASPD induced translocation, 24 h. As for the experimental part:
as §1
A PBS solution of 5×10^6 Human SH-SY5Y neuroblastoma cells was centrifuged and the resultant cell pellet was resuspended and washed twice with cold PBS. After the second wash, the cell pellet was resuspended in 500 μl of hypotonic buffer (20 mM Tris-Cl, pH 7.4, 10 mM NaCl, 3 mM MgCl2, and 1 mM PMSF) and incubated on ice for 15 min. Next, 25 μl of 10% NP-40 was added to the cell suspension and the sample was vortexed for 10 s. The homogenate was centrifuged for 10 min at 1000×g at 4° C. to obtain the cytoplasmic fraction (supernatant) and nuclear fraction (pellet). After removing the supernetant, the nuclear pellet was resuspended in 50 μl of complete cell extraction buffer (100 mM Tris-Cl, pH 7.4, 2 mM Na3VO4, 100 mM NaCl, 1% Triton X-100, 1 mM EDTA, 10% glycerol, 1 mM EGTA, 0.1% SDS, 1 mM NaF, 0.5% deoxycholate, 20 mM Na4P2O7, and 1 mM PMSF) and incubated on ice for 30 min with vortexing at 10 min intervals. The nuclear lysate was centrifuged at 14,000×g for 30 min at 4° C. to obtain the nuclear fraction (supernatant). Protein concentration was measured using the Coomassie Plus (Bradford) Protein Assay kit (Pierce).
Protein in samples of the supernetant and nuclear fractions was separated by SDSPAGE in a 4-20% gradient Tris-Glycine gel (Invitrogen). The protein was then transferred to nitrocellulose membrane. The membrane was blocked with BSA at room temperature for 15 min and incubated with primary antibody overnight at 4° C. After incubation, the membrane was washed thrice (3×) with TBS-T (Tris-buffered saline-Tween 20) and further incubated with alkaline-phosphatase-conjugated secondary antibody (Jackson Immunoresearch Laboratories) at 1:10,000 dilution for 45 min. Following incubation, the membrane was washed 3× with TBS-T and developed using the 1-step NBT-BCIP substrate (Pierce). […] The immunoblot proteins were detected using ImageQuant RT-ECL (GE Life Sciences) and densitometric quantification was performed using IMAL software, which was developed at our institution. […]
Background: In western blotting, separated proteins are transferred to a membrane and probed.

Series [8] relates to HDAC4. Kind of series: HDAC4 nuclear translocation in SH-SY5Y cells (immunoblot). Particulars: ApoE4+ASPD induced translocation, 24 h. In kind it is cell-based, human. On the procedure: as §1
A PBS solution of 5×10^6 Human SH-SY5Y neuroblastoma cells was centrifuged and the resultant cell pellet was resuspended and washed twice with cold PBS. After the second wash, the cell pellet was resuspended in 500 μl of hypotonic buffer (20 mM Tris-Cl, pH 7.4, 10 mM NaCl, 3 mM MgCl2, and 1 mM PMSF) and incubated on ice for 15 min. Next, 25 μl of 10% NP-40 was added to the cell suspension and the sample was vortexed for 10 s. The homogenate was centrifuged for 10 min at 1000×g at 4° C. to obtain the cytoplasmic fraction (supernatant) and nuclear fraction (pellet). […] Protein concentration was measured using the Coomassie Plus (Bradford) Protein Assay kit (Pierce).
Protein in samples of the supernetant and nuclear fractions was separated by SDSPAGE in a 4-20% gradient Tris-Glycine gel (Invitrogen). […] The immunoblot proteins were detected using ImageQuant RT-ECL (GE Life Sciences) and densitometric quantification was performed using IMAL software, which was developed at our institution. […]

For series [9], the system named is HDAC6-BDNF PIV association. Kind of series: ChIP: HDAC6 association with BDNF promoter IV. In kind it is cell-based, human. As for the experimental part: as §1, §2, §3
The subject of series [10] is PKCε mRNA. The experiment in a line: PKCε mRNA expression in SH-SY5Y cells (qRT-PCR). The series is classed as cell-based, human. The following applies: ASPD+ApoE4 treated cells plus PKC activator. On the procedure: as §1
qRT-PCR was performed and the results analyzed as described previously (Schmittgen et al., Analyzing real-time PCR data by the comparative C(T) method, Nat. Protoc., 3:1101-1108, 2008; Sen et al., 2012 supra). Total RNA (500 ng) was reverse transcribed using oligo(dT) and Superscript III (Invitrogen) at 50° C. for 1 h. The cDNA products were analyzed using a LightCycler 480 II (Roche) PCR machine and LightCycler 480 SYBR Green 1 master mix following the manufacturer's protocol. […]

For `CCC/C=C/C=C/C(=O)O[C@H]1/C(=C/C(=O)OC)C[C@H]2C[C@H]([C@@H](C)O)OC(=O)C[C@H](O)C[C@@H]3C[C@H](OC(C)=O)C(C)(C)[C@](O)(C[C@@H]4C/C(=C/C(=O)OC)C[C@H](/C=C/C(C)(C)[C@]1(O)O2)O4)O3` [Bryostatin-1], in series [1], the “synthesis of PKCε” value was “increases the synthesis of PKCε” and the “time of highest PKCε levels post administration” value came out at 1 h. Further, in [2], the “PKCε expression and levels in the brain” value is “activate PKCε expression and increase PKCε levels in the brain of mice”. Further, the “t1/2 in the blood stream” value in [3] (blood) was 1 h. Moreover, the “crossing of the blood-brain barrier” value in [3] (in vivo) is reported as “crosses the blood-brain barrier”. The “part of initial dose in the blood at 100 hrs” value in series [3] (intravenous injection, 100 hrs) is 1%. Moreover, the “time detectable in the blood after a single injection” value in series [3] (single injection) is listed as 14 days.
For `CCCCCC1CC1CC1CC1CCCCCCCC(=O)OC` (centres unmarked) [DCPLA-ME, DCPLA methyl ester], the “effect on ApoE4+Chol induced HDAC6-PIII association” value in series [4] is listed as “blocked the ApoE4+Chol induced increase”. The “BDNF-exon IV expression” value in series [5] (ApoE3+Chol+DCPLA-ME) worked out at 1.98±0.13; in [5] (ApoE4+Chol+DCPLA-ME), 0.74±0.01; in series [5] (DCPLA-ME+Chol) it was 1.85±0.27 fold. Further, the BDNF expression turned out to be 0.95±0.1 in series [6] (cells treated with ApoE4+Chol+DCPLA-ME) and 1.91±0.21 fold in [6] (cholesterol treated cells). The “reduction in nuclear HDAC6” value in [7] amounted to 56±5.9%. In series [8], the “reduction of nuclear import of HDAC4” value is 35±6.9%. Also, the “effect on ApoE4+Chol induced HDAC6-PIV association” value in series [9] was “blocked the ApoE4+Chol induced increase”. Moreover, the “PKCε mRNA levels” value in series [10] is on record as 0.95±0.09 fold.
